The values that follow are results of earlier work, collected in patent publication US20050026813A1, “Antibiotic-metal complexes in the detection of gram-positive bacteria and other biological analytes” (priority 2003, published 2005).

One may read the ED50 as the dose that gives a 50% effect, or the effect in half of the subjects.

The subject of series [1] is Bacillus subtilis ATCC 6633.
In series [2] the test system is Streptococcus pyogenes CN10.
Series [3] relates to Staphylococcus aureus Oxford.
Series [4] has as its system Staphylococcus aureus SG511.
In series [5] the test system is Streptococcus pyogenes 77A.
Series [6] relates to Staphylococcus aureus SR14.
Another series concerns S. aureus SR2030. Conditions: S. aureus SR2030 in mice, s.c.
The next series has as its system gram-positive bacteria. To be noted: in words.
Series [7] deals with anaerobes and gram-positive aerobes.
Series [8] has as its system multi-drug resistant strains of Haemophilus influenzae and Moraxella catarrhalis.
Series [9] relates to Mycobacterium smegmatis ATCC 607.
For series [10], the system named is Enterococcus faecalis subsp. Liquifaciens S-299.
In the next series the test system is Staphylococcus aureus 56. Conditions: mice infected with Staphylococcus aureus 56.
A further series relates to Staphylococcus aureus. Conditions: systemic infections in mice.
The subject of a further series is Streptococcus pyogenes. To be noted: systemic infections in mice.
A further series deals with Strep pneumoniae. To be noted: systemic infections in mice.
For series [11] the following is noted: systemic infections in mice, Enterobacter faecalis.
In series [12] the test system is laboratory strains of aerobic and anaerobic gram-positive bacteria.
Series [13] concerns subcutaneous and urinary tract infections.

Regarding `CCCCCCCCCC(=O)NC1C(O[C@@H]2c3cc(Cl)c(c(Cl)c3)Oc3cc4cc(c3OC3OC(CO)C(O)C(O)C3O)Oc3ccc(cc3Cl)[C@@H](O)[C@H]3NC(=O)[C@H](NC)c5ccc(O)c(c5)Oc5cc(O)c(Cl)c(c5)C(NC3=O)C(=O)NC4C(=O)N[C@H]3C(=O)N[C@@H]2C(O)N[C@H](C(=O)O)c2cc(O)cc(O)c2-c2cc3cc(Cl)c2OC2OC(CO)C(O)C(O)C2O)OC(C(=O)O)C(O)C1O` (stereo partly shown) [MM 55268], the MIC in [1] is recorded as 2 microgram/ml; in the series on Micrococcus luteus it was 2 microgram/ml; with Staph. aureus V573 MR, 1 microgram/ml; in series [2] it was 0.25 microgram/ml.
`CN[C@H](CC(C)C)C(=O)N[C@H]1C(=O)N[C@@H](CC(N)=O)C(=O)N[C@H]2C(=O)N[C@H]3C(=O)N[C@H](C(=O)N[C@H](C(=O)O)c4cc(O)cc(O)c4-c4cc3ccc4O)[C@H](O)c3ccc(c(Cl)c3)Oc3cc2cc(c3O[C@@H]2O[C@H](CO)[C@@H](O)[C@H](O)[C@H]2O[C@H]2C[C@](C)(N)[C@H](O)[C@H](C)O2)Oc2ccc(cc2Cl)[C@H]1O` [vancomycin]: the MIC in series [1] was 0.25 microgram/ml; with Micrococcus luteus, 2 microgram/ml; in [3] it was 2 microgram/ml; in the series on Staph. aureus V573 MR, 2 microgram/ml; in series [2], 1 microgram/ml; in the series on Strep. faecalis I it was 2 microgram/ml.
Turning to des-methyl-balhimycin, the MIC in [4] is recorded as 0.1 microgram/ml; in the series on S. aureus 285, 0.1 microgram/ml; in the series with S. aureus 503, 0.05 microgram/ml; in series [5] it was 0.05 microgram/ml.
For the compound `CNC(CC(C)C)C(=O)NC1C(=O)NC(CC(N)=O)C(=O)NCC2C(=O)NC3CC/C=C\C=C(\O)CCc4c(O)cc(O)cc4C(C(=O)O)NCC(=O)C(CC(OC4CC(C)(N)C(O)C(C)O4)CC/C=C\COC4=C(OC5OC(CO)C(O)C(O)C5OC5CC(C)(N)C(O)C(C)O5)C(=CC2C=C4)OC/C=C\CCC1O)NCC3=O` (stereo not shown) [PA-42867], the MIC in series [6] is recorded as 0.78 microgram/ml. Further, the median effective dose (ED50) with S. aureus SR2030 was 2.31 mg/kg. In the series with gram-positive bacteria, the “activity against gram-positive bacteria” value is recorded as “potent activity”.
In the case of `COC(C)C(NC(=O)C1CCCN1C)C1OC(SC)C(O)C(O)C1O` (stereo not shown) [BU-2545, 7-O-methyl-4′-de-n-propyllincomycin], the antibacterial activity entry in series [7] is “exhibits antibacterial activity”.
Turning to `C[C@@H]1CN(c2c(F)c(N)c3c(=O)c(C(=O)O)cn(C4CC4)c3c2F)C[C@H](C)N1` [sparfloxacin], the in vitro activity result in series [8] is given as “highly active”.
Take “avoparcin alpha, 49-chloro-4B,50-di-O-alpha-D-mannopyranosyl- [Galacardin A]”: the results for the MIC (in the series on S. aureus Sank 70175; in series [9]; in series [10]) were 6.25 microgram/ml, 25.0 microgram/ml and 6.25 microgram/ml, respectively. The “in vivo efficacy (ED50)” value in the series with Staphylococcus aureus 56 was 19.0 mg/kg.
`CN[C@H](CC(C)C)C(=O)N[C@H]1C(=O)N[C@@H](CC(N)=O)C(=O)N[C@H]2C(=O)NC3C(=O)N[C@@H](C[C@H](OC4C[C@@H](C)C(O)C(C)O4)c4ccc(c(Cl)c4)Oc4cc2cc(c4OC2OC(CO)C(O)C(O)C2O)OC2CC=C(C=C2Cl)C1O)C(=O)N[C@H](C(=O)O)c1cc(O)cc(O)c1-c1cc3ccc1O` (stereo partly shown) [S-3662]: the ED50 with Staphylococcus aureus is on record as 2.63 mg/kg; in the series on Streptococcus pyogenes, 0.49 mg/kg; with Strep pneumoniae, 0.39 mg/kg; in series [11] it was 0.95 mg/kg. The “activity compared with vancomycin” value in series [12] is “superior to vancomycin”. Also, the therapeutic efficacy entry in series [13] is given as “showed therapeutic efficacy”.
For the compound “vancomycin,22-O-(3-amino-2,3,6-trideoxy-3-C-methyl-alpha-D-arabino-hexopyranosyl)-2′-O-de(3-amino-2,3,6-trideoxy-3-C-methyl-alpha-L-lyxoyranosyl)-10,19-didechloro-2′-O-(6-deoxy-alpha-D-talopyranosyl)- [MM-49721]”, the MIC with Bacillus subtilis is 2 microgram/ml. In addition, in the series with gram-positive bacteria, the “activity against gram-positive bacteria” value is recorded as “good activity”.
